Non-standard residues stand in square brackets, D forms with d. No end group written: not given here. Aib = CC(C)(N)C(=O)O A value given as a limit tells only on which side of the number the result lay.

For series [1], the system named is red blood cells. It is filed as cell-based, human. The method, then:
To 190 μl of the red blood cell-containing solution thus prepared, was added 10 μl of peptide solution prior to the incubation at 37° C. for 30 min. After incubation, centrifugation followed to obtain supernatant. Then, a level (%) of cell lysis caused by peptides was determined by the examination of absorbance at 576 nm (see: Table 12). At this moment, TEDFK, TEDFK-1A, M5, M6, M19, M22 and M32 were chosen as peptide fragments of Tenecin, and an antibiotic peptide KLK (see: Natori, S. et al., J. Biochem., 117(6):1312-1316(1995)) and a commercially available antibiotic, Amphotericin B(Sigma, USA) known to lyse a red blood cell were employed as controls, respectively.

Series [2] concerns Candida albicans (ATCC 36232). The series can be described thus: MIC test, antifungal activity. Type of series: cell-based. The method, then:
(§1) Antibacterial and antifungal activities of the peptides were determined by employing MIC test as follows:
(§2) To determine antifungal activity, a test organism Candida albicans (ATCC 36232) was cultured on Sabouraud dextrose agar plate for 24 to 48 hrs, and colonies thus grown were suspended on Sabouraud dextrose medium(Gibco, USA) to have O.D.530 =0.5(3×10^6 cells) and further diluted with 100-fold to have O.D.530 =0.005(3×10^4 cells). 100 μl of Candida albicans culture thus prepared was pipetted on 96-well microplates which had already contained 100 μl of a serially diluted peptide solution.

The test system of series [3] is Staphylococcus aureus (ATCC 6538). Nature of the series: MIC test, antibacterial activity. Type of series: cell-based. The method, then: as §1, §2
Antibacterial activity of peptide was determined analogously as above, with an exception that Staphylococcus aureus (ATCC 6538) selected as a test organism was cultured on M-3 medium(Gibco, USA) at 37° C. and cell number was adjusted to 2×10^8 cells before 100-fold dilution.

Where [4] appears, read: Table 8, TEDFK derivatives of group 1.
Where [5] appears, read: Table 11, enantiomer, retro-inverso, D-amino acid derivatives of M22.
Where [6] appears, read: Table 1, peptide fragments of Tenecin.
The mark [7] stands for this setting: Table 3, addition of an amino acid to N-terminal of TED.
[8] abbreviates: Table 4, addition of an amino acid to N-terminal of TEDF.
The mark [9] stands for this setting: Table 9, TEDFK derivatives of group 2.

As to `C[C@@H]1[C@H](O)[C@@H](C)/C=C/C=C/C=C/C=C/C=C/C=C/C=C/[C@H](O[C@@H]2O[C@H](C)[C@@H](O)[C@H](N)[C@@H]2O)C[C@@H]2O[C@](O)(C[C@@H](O)C[C@@H](O)[C@H](O)CC[C@@H](O)C[C@@H](O)CC(=O)O[C@H]1C)C[C@H](O)[C@H]2C(=O)O` [Amphotericin B], the “cell lysis (in words)” value in series [1] is “cause cell lysis”.

As for “YCNGKRVCVCRKK--NH2 (YCNGKRVCVCRKK-NH2; cysteine pairing not given here) [M15]”, the “MIC C. albicans” value in series [2] (setting [4]) is 6.25 µg/mL. Also, the “MIC S. aureus” value in series [3] (setting [4]) was determined as 6.35 µg/mL.

As for “KFY[Aib]KKVCVCK-NH2 (cysteine pairing not given here) [M8]”, the “MIC C. albicans” value in series [2] (setting [4]) was found to be 3.12 µg/mL. Moreover, the “MIC S. aureus” value in series [3] (setting [4]) is 3.16 µg/mL.

As to kfycngkrvcvcr-NH2 [Enantiomer of TEDFK], the “MIC C. albicans” value in series [2] (setting [5]) stood at 6.35 µg/mL. Further, in series [3] (setting [5]), the “MIC S. aureus” value was found to be 6.35 µg/mL.

Turning to “VTCDILSSVEAKGVKL--NH2 (VTCDILSSVEAKGVKL-NH2) [TEC]”, the “MIC C. albicans” value in series [2] (setting [6]) was over 100 µg/mL. The “MIC S. aureus” value in series [3] (setting [6]) was over 500 µg/mL.

For the compound “WYCNGKRVCVCR--NH2 (WYCNGKRVCVCR-NH2; cysteine pairing not given here) [TEDW]”, in series [2] (setting [7]), the “MIC C. albicans” value turned out to be 20 µg/mL. The “MIC S. aureus” value in series [3] (setting [7]) came to 20 µg/mL.

With “KFYCNGKRVCVCR--NH2 [TEDFK] (KFYCNGKRVCVCR-NH2; cysteine pairing not given here)”, the “MIC C. albicans” value is 3 µg/mL in series [2] (setting [8]), 6.25 µg/mL in series [2] (setting [4]), 6.25 µg/mL in series [2] (setting [9]) and 6.25 µg/mL in series [2] (setting [5]). Besides, the “MIC against C. albicans” value in series [2] (Table 5, modification of TEDFK) was found to be 3 µg/mL; in series [2] (Table 6, substitution of Cys in TEDFK with Aib) it was 3 µg/mL; in series [2] (Table 10, TEDFK derivatives of group 3) it was 6.25 µg/mL. Also, the “MIC S. aureus” value in series [3] (setting [8]) was determined as 5 µg/mL; in series [3] (setting [4]), 6.25 µg/mL; in series [3] (setting [9]) it was 6.25 µg/mL; in series [3] (setting [5]) it was 6.25 µg/mL.

In the case of KKYIkkVFVFK--NH2 [M22-27], in series [2] (setting [5]), the “MIC C. albicans” value amounted to 3.11 µg/mL. In addition, in series [3] (setting [5]), the “MIC S. aureus” value was found to be 3.17 µg/mL.

Regarding “KFYCDGKRVCVCR--NH2 (KFYCDGKRVCVCR-NH2; cysteine pairing not given here) [M18]”, the “MIC C. albicans” value in series [2] (setting [4]) came out at 12.5 µg/mL. In series [3] (setting [4]), the “MIC S. aureus” value worked out at 12.7 µg/mL.

As for “KYCNGKRVCVCRK--NH2 (KYCNGKRVCVCRK-NH2; cysteine pairing not given here) [M16]”, the “MIC C. albicans” value in series [2] (setting [4]) amounted to 6.25 µg/mL. Moreover, the “MIC S. aureus” value in series [3] (setting [4]) amounted to 6.35 µg/mL.

With “DYCNGKRVCVCR--NH2 (DYCNGKRVCVCR-NH2; cysteine pairing not given here) [TEDD]”, the “MIC C. albicans” value in series [2] (setting [7]) amounted to 50 µg/mL. In addition, the “MIC S. aureus” value in series [3] (setting [7]) was found to be 10 µg/mL.

As to “KYCNGKRVCVCR--NH2 (KYCNGKRVCVCR-NH2; cysteine pairing not given here) [TEDK]”, the “MIC C. albicans” value in series [2] (setting [7]) is 5 µg/mL. Also, the “MIC S. aureus” value in series [3] (setting [7]) worked out at 5 µg/mL.

As for “AYCNGKRVCVCR--NH2 (AYCNGKRVCVCR-NH2; cysteine pairing not given here) [TEDA]”, the “MIC C. albicans” value in series [2] (setting [7]) came out at 10 µg/mL. In series [3] (setting [7]), the “MIC S. aureus” value came out at 10 µg/mL.

For the compound KKYIKKVFVFk--NH2 [M22-7], the “MIC C. albicans” value in series [2] (setting [5]) was found to be 3.12 µg/mL. In addition, the “MIC S. aureus” value in series [3] (setting [5]) came to 3.11 µg/mL.

With “YCNGKRVCVCR--NH2 (YCNGKRVCVCR-NH2; cysteine pairing not given here) [TED]”, the “antifungal activity (in words)” value in series [2] is reported as “excellent antifungal activity”. Moreover, the “MIC C. albicans” value in series [2] (setting [6]) and in series [2] (setting [7]) was 10 µg/mL throughout. For the same compound, the “MIC against C. albicans” value in series [2] (Table 2, modification of N-terminal residues of TED) is 10 µg/mL. Besides, the “MIC S. aureus” value in series [3] (setting [6]) and in series [3] (setting [7]) was 10 µg/mL in each case.

Regarding “rcvcvrkgncyfk-NH2 [Retro-inverso of TEDFK]”, the “MIC C. albicans” value in series [2] (setting [5]) is 6.25 µg/mL. Also, the “MIC S. aureus” value in series [3] (setting [5]) is 6.25 µg/mL.

Turning to “SYCNGKRVCVCR--NH2 (SYCNGKRVCVCR-NH2; cysteine pairing not given here) [TEDS]”, the “MIC C. albicans” value in series [2] (setting [7]) stood at 50 µg/mL. The “MIC S. aureus” value in series [3] (setting [7]) is 10 µg/mL.

Consider “VTCDILSVEAKGVKLNDAACAAHC-LFRGRSGGYCNGKRVCVCR--CO2 H [Tenecin]”, for which, in series [2] (setting [6]), the “MIC C. albicans” value was over 500 µg/mL. For the same compound, the “MIC S. aureus” value in series [3] (setting [6]) was 3 µg/mL.

For “FKYCNGKRVCVCR--NH2 (FKYCNGKRVCVCR-NH2; cysteine pairing not given here) [M3]”, in series [2] (setting [4]), the “MIC C. albicans” value turned out to be 12.5 µg/mL. The “MIC S. aureus” value in series [3] (setting [4]) worked out at 12.7 µg/mL.

As for “KFYCNGKRVCVCW--NH2 (KFYCNGKRVCVCW-NH2; cysteine pairing not given here) [M31]”, the “MIC C. albicans” value in series [2] (setting [4]) came out at 12.5 µg/mL. Moreover, the “MIC S. aureus” value in series [3] (setting [4]) is 12.7 µg/mL.

Source of the values: patent publication US5889148A, “Antibiotic peptides” (priority 1995, dated 1999).
